Data: patent US20240109900A1, “AZABICYCLIC SHP2 INHIBITORS” (IRBM S.P.A., priority 2021, published 2024)
pIC50: −log10 of the molar value. Read-outs that look alike come from different tables or passages of the source.

Key:
[1] = target: SHP-2 enzyme (Met1-Leu525) (Homo sapiens (Human), UniProt Q06124); experiment: SHP2 inhibition enzymatic assay; assay type: biochemical; settings: 0.5 nM SHP-2 activated by 500 nM IRS1 peptide, 75 μM DiFMUP substrate; read-out: SHP2wt-IC50
Method in brief: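 SHP-2 (Met1-Leu525), 0.5 nM, activated with 500 nM IRS1 bis-phosphopeptide, preincubated 30 min with compounds in HEPES pH 7.2 buffer with 5 mM DTT. 75 μM DiFMUP added for 30 min at room temperature, stopped with bpV; fluorescence read. IC50 from four-parameter logistic fit of % inhibition.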

[2] = tested on: ERK phosphorylation in KYSE-520 cells; experiment: Phospho-ERK cellular assay; assay type: cell-based; settings: KYSE-520 cells, 2 h at 37° C., phospho-ERK1/2 (Thr202/Tyr204) TR-FRET, read-out: PERK IC50
Method in brief: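 TR-FRET read-out of ERK1/2 Thr202/Tyr204 phosphorylation was taken after overnight antibody incubation at room temperature. Before that, KYSE-520 cells were treated 2 h at 37 °C with compound dilutions and lysed 30 min. Percent inhibition relative to vehicle and cell-free wells was fitted four-parametrically to give IC50.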

SHP-2 enzyme (Met1-Leu525), sequence (Q06124 1-525): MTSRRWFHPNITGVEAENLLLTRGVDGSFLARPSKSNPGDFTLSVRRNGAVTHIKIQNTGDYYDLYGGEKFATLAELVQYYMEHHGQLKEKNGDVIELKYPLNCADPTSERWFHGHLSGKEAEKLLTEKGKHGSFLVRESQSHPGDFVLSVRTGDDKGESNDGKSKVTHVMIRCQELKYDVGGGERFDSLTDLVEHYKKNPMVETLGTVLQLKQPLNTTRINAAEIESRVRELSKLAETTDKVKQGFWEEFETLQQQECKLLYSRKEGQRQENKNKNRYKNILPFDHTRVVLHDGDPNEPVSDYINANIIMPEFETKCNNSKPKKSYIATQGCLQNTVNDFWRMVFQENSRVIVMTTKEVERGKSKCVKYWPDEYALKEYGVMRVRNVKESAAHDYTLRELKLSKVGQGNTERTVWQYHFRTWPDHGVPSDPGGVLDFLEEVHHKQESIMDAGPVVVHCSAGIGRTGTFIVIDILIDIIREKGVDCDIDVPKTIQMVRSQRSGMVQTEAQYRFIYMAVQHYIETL

Structure (SMILES) | pIC50 [1] | pIC50 ([2]; Homo sapiens, KYSE-520, 2 h) | pIC50 [2]
NC[C@]1(c2ccccc2F)[C@@H]2CCN(c3cnc4c(-c5ccc6nc(C(F)(F)F)ncc6c5)n[nH]c4n3)C[C@@H]21 [Example 309, ((1S,6R,7R)-7-(2-fluorophenyl)-3-(3-(2-(trifluoromethyl)quinazolin-6-yl)-1H-pyrazolo[3,4-b]pyrazin-6-yl)-3-azabicyclo[4.1.0]heptan-7-yl)methanamine] | > 6.30 | < 5.30 | 
NC[C@]1(c2ccccc2F)[C@@H]2CCN(c3cnc4c(-c5ccc6c(c5)CCN6)n[nH]c4n3)C[C@@H]21 [Example 312, ((1S,6R,7R)-7-(2-fluorophenyl)-3-(3-(indolin-5-yl)-1H-pyrazolo[3,4-b]pyrazin-6-yl)-3-azabicyclo[4.1.0]heptan-7-yl)methanamine] | > 6.30 | > 6.00 | 
Cn1ccc2c(-c3n[nH]c4nc(N5CC[C@@H]6[C@H](C5)[C@@]6(CN)c5ccccc5F)cnc34)ccc(F)c2c1=O [Example 315, 5-(6-((1S,6R,7R)-7-(aminomethyl)-7-(2-fluorophenyl)-3-azabicyclo[4.1.0]heptan-3-yl)-1H-pyrazolo[3,4-b]pyrazin-3-yl)-8-fluoro-2-methylisoquinolin-1(2H)-one] | > 6.30 | > 6.00 | 
Cn1c(=O)[nH]c2ccc(-c3n[nH]c4nc(N5CC[C@@H]6[C@H](C5)[C@@]6(CN)c5ccccc5F)cnc34)cc21 [Example 320, 6-(6-((1S,6R,7R)-7-(aminomethyl)-7-(2-fluorophenyl)-3-azabicyclo[4.1.0]heptan-3-yl)-1H-pyrazolo[3,4-b]pyrazin-3-yl)-1-methyl-1,3-dihydro-2H-benzo[d]imidazol-2-one] | > 6.30 | > 6.00 | 
NC[C@]1(c2ccccc2F)[C@@H]2CCN(c3cnc4c(-c5cc(F)c(O)c(F)c5)n[nH]c4n3)C[C@@H]21 [Example 322, 4-(6-((1S,6R,7R)-7-(aminomethyl)-7-(2-fluorophenyl)-3-azabicyclo[4.1.0]heptan-3-yl)-1H-pyrazolo[3,4-b]pyrazin-3-yl)-2,6-difluorophenol] | > 6.30 | > 6.00 | 
NC[C@]1(c2ccccc2F)[C@@H]2CCN(c3cnc4c(-c5ccc(-c6cc(F)cc(F)c6)cc5Cl)n[nH]c4n3)C[C@@H]21 [Example 323, ((1S,6R,7R)-3-(3-(3-chloro-3′,5′-difluoro-[1,1′-biphenyl]-4-yl)-1H-pyrazolo[3,4-b]pyrazin-6-yl)-7-(2-fluorophenyl)-3-azabicyclo[4.1.0]heptan-7-yl)methanamine] | > 6.30 | > 6.00 | 

Results, then the compound that gave them:

pIC50 [1] | pIC50 ([2]; Homo sapiens, KYSE-520, 2 h) | pIC50 [2] | Structure (SMILES)
> 6.30 |  | > 6.00 | NC[C@]1(c2ccccc2F)[C@@H]2CCN(c3cnc4c(-c5ccc6c(c5Cl)NCCO6)n[nH]c4n3)C[C@@H]21 [Example 311]
> 6.30 | > 6.00 |  | Cn1ccc2c(F)c(-c3n[nH]c4nc(N5CC[C@@H]6[C@H](C5)[C@@]6(CN)c5ccccc5F)cnc34)ccc2c1=O [Example 316, 6-(6-((1S,6R,7R)-7-(aminomethyl)-7-(2-fluorophenyl)-3-azabicyclo[4.1.0]heptan-3-yl)-1H-pyrazolo[3,4-b]pyrazin-3-yl)-5-fluoro-2-methylisoquinolin-1(2H)-one]
> 6.30 | > 6.00 |  | Cn1c(=O)n(C)c2c(Cl)c(-c3n[nH]c4nc(N5CC[C@@H]6[C@H](C5)[C@@]6(CN)c5ccccc5F)cnc34)ccc21 [Example 317, 5-(6-((1S,6R,7R)-7-(aminomethyl)-7-(2-fluorophenyl)-3-azabicyclo[4.1.0]heptan-3-yl)-1H-pyrazolo[3,4-b]pyrazin-3-yl)-4-chloro-1,3-dimethyl-1,3-dihydro-2H-benzo[d]imidazol-2-one]
> 6.30 | > 6.00 |  | NC[C@]1(c2ccccc2F)[C@@H]2CCN(c3cnc4c(-c5ccc6nn(CC(N)=O)cc6c5Cl)n[nH]c4n3)C[C@@H]21 [Example 324, 2-(5-(6-((1S,6R,7R)-7-(aminomethyl)-7-(2-fluorophenyl)-3-azabicyclo[4.1.0]heptan-3-yl)-1H-pyrazolo[3,4-b]pyrazin-3-yl)-4-chloro-2H-indazol-2-yl)acetamide]
